# Laboratory results taken from ChEMBL document CHEMBL1201862, “PubChem BioAssay data set” (2004).
# Where “and” joins values, the source holds several entries; their conditions need not be identical. Equal entries are not always repeated. Calls of active or inactive are those of the source.
# Assays:
# [1] = HEK293T cytotoxicity, dose response, cytotoxicity control for miR-122 modulator project, cell-based, inhibitor set, cherry-pick, set 2 (AID 720697); assay type: functional
# [2] = HEK293T cytotoxicity, dose response, cytotoxicity control for miR-122 modulator project, cell-based, activator set, cherry-pick (AID 720690); assay type: functional;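 also: HEK293T human cells scored for general mammalian cytotoxicity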
# [3] = molecular target: T1, Short transient receptor potential channel 4 (Mus musculus, UniProt Q9QUQ5); assay: mouse TRPC4 channel activators, dose response, cell-based, HEK293 TRPC4/mu-opioid, Fluo-4 calcium (AID 434937); assay type: functional
# T1 sequence (Q9QUQ5 whole entry): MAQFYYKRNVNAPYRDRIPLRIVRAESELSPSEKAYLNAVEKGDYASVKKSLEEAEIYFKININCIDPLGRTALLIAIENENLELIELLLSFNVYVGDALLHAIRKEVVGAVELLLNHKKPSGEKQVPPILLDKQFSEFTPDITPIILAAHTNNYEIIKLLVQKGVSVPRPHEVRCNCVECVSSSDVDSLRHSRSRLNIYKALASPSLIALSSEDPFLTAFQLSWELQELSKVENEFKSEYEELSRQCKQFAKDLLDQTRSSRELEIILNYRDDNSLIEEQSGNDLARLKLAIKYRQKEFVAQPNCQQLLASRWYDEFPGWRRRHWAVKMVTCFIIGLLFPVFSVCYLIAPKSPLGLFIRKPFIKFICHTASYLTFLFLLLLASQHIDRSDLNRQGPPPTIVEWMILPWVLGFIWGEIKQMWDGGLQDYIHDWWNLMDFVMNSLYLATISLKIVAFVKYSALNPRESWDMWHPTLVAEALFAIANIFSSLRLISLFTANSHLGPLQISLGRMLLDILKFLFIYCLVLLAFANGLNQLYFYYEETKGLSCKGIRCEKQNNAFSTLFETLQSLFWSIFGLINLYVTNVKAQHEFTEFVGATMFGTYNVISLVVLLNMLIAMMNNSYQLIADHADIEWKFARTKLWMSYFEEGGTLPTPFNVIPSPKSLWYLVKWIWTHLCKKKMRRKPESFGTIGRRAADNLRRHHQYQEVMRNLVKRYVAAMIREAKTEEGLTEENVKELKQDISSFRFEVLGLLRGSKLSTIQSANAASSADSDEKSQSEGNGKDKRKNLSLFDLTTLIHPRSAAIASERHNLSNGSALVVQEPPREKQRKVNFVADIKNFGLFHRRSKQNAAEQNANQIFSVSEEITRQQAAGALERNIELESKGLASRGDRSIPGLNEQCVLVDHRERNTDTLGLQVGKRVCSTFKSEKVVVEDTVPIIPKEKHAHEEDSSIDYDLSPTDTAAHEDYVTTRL
# Kallikrein-7 = Kallikrein-7 (Homo sapiens, UniProt P49862); assay: Fluorescence Intensity-based biochemical primary high throughput dose response assay to identify activators of kallikrein-7 (K7) zymogen.
# [4] = molecular target: T2, Oxysterols receptor LXR-beta (Homo sapiens, UniProt P55055); assay type: functional, cell-based;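 also: Cell-based luminescence dose-response assay of agonist activity at LXR, run as a confirmatory counterscreen to a daf-12 agonist screen; HEK293 cells with Gal4-LXR fusion and GAL4-driven luciferase reporter; agonist potency from rising luciferase signal of a Gal4-LXR reporter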
# T2 sequence (P55055 whole entry): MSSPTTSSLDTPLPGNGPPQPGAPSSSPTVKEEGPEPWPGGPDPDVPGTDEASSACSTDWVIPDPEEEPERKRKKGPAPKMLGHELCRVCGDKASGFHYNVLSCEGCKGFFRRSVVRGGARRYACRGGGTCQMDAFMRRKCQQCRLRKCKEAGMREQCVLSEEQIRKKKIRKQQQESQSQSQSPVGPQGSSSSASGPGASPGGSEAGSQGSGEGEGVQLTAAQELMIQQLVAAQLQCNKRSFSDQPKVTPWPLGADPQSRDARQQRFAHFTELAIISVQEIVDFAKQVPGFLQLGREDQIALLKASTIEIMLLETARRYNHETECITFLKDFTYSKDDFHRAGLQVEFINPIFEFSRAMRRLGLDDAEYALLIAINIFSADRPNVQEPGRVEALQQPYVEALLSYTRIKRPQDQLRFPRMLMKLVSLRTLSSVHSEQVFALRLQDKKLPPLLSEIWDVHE
# HEK293 [5] = assay: cells; assay type: functional, cell-based; conditions: Homo sapiens
# [6] = molecular target: T3, Nuclear receptor subfamily 0 group B member 1 (Homo sapiens, UniProt P51843); assay: Luminescence-based cell-based high throughput dose response assay for inhibitors of the orphan nuclear receptor subfamily 0, group B, member 1 (DAX1; NR0B1). [Related pubchem assays (depositor defined):AID504766, AID504790]; assay type: functional
# T3 sequence (P51843 whole entry): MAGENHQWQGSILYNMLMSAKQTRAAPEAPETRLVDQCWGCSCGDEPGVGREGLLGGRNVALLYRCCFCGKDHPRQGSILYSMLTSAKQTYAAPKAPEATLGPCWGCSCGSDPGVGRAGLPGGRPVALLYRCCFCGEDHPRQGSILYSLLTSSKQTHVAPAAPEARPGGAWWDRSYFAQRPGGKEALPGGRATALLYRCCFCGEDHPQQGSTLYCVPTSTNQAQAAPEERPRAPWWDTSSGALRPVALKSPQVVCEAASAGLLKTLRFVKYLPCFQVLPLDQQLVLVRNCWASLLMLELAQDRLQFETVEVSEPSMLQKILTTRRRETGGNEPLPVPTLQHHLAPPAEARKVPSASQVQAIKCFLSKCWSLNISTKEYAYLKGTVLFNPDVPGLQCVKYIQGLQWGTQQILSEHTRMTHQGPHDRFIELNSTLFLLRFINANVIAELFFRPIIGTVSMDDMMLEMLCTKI
# HEK293 [7] = assay: cells; assay type: functional, cell-based; conditions: Homo sapiens; remark: listed apart in the source
# [8] = ADAM10 inhibitors, peptide cleavage, dose response, biochemical, QFRET (AID 743254);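 also: ADAM10 enzyme with the DM2 quenched FRET peptide as substrate; EDANS fluorescence gain as the protease cuts the substrate; inhibitor potency against ADAM10 proteolytic activity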
# [9] = molecular target: T4, Nucleotide-binding oligomerization domain-containing protein 1 (Homo sapiens, UniProt Q9Y239); assay: NOD1 signaling inhibitors, SAR follow-up, revised (AID 2333); assay type: functional
# T4 sequence (Q9Y239 whole entry): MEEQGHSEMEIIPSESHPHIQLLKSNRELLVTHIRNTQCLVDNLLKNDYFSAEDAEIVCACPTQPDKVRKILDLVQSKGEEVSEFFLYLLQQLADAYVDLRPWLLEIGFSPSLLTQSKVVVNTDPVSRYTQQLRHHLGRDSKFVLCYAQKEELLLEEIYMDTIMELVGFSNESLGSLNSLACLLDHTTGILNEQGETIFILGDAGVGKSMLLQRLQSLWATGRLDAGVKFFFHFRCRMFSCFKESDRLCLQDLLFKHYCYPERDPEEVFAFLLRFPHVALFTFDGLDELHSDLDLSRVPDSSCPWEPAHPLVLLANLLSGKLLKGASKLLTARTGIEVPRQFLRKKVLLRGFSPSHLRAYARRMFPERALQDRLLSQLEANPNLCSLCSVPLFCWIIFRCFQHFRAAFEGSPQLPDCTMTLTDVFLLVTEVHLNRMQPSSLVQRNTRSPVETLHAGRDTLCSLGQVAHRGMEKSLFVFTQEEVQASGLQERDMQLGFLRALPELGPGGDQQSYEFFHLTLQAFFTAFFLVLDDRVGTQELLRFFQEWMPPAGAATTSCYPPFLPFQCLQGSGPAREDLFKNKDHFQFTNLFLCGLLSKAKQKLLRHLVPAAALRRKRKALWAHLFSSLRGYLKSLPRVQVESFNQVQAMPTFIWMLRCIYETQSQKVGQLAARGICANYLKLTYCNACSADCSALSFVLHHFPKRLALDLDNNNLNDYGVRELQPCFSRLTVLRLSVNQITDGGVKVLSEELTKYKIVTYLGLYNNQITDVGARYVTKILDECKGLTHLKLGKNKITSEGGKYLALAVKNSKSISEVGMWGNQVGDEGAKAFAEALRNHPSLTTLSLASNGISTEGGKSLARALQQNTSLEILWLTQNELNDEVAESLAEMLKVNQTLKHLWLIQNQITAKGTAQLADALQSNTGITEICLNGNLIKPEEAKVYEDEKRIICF
# HEK293 [10] = assay: cells; assay type: functional, cell-based; conditions: Homo sapiens; remark: listed apart in the source
# HEK293 [11] = assay: NOD1 signaling inhibitors, primary screen, cell-based, luminescence, uHTS (AID 1578); assay type: functional; conditions: Homo sapiens
# Tumor necrosis factor = Tumor necrosis factor (Homo sapiens, UniProt P01375); assay: TNFa-triggered NF-kB activation inhibitors, SAR follow-up, cell-based, revised (AID 2337); assay type: functional
# [12] = molecular target: Disintegrin and metalloproteinase domain-containing protein 17 (Homo sapiens, UniProt P78536); assay: ADAM17 protease inhibitors, dose response, counter-screen for ADAM10 exosite inhibitor project, biochemical, quenched FRET substrate (AID 743253)
# HEK293 [13] = assay: cells; conditions: Homo sapiens
# HEK293 [14] = assay: NOD2 signaling inhibitors in MDP-stimulated cells, cell-based, uHTS, luminescence (AID 2001); assay type: functional; conditions: Homo sapiens
# HEK293 [15] = assay: cells; conditions: Homo sapiens; remark: listed apart in the source
# HEK293 [16] = assay: cells; conditions: Homo sapiens; remark: listed apart in the source
# [17] = NIH:OVCAR-3 ovarian cancer cell cytotoxicity, dose response, PAX8 inhibitor project, plate reader, dry powder samples (AID 743044); assay type: functional, cell-based
# [18] = A2780 ovarian cancer cell cytotoxicity, dose response, cytotoxicity control, plate reader, dry powder samples (AID 743046); assay type: functional, cell-based
# [19] = non-specific cell cytotoxicity, dose response, cytotoxicity control for PAX8 inhibitor project, plate reader, dry powder samples (AID 743021); assay type: functional, cell-based
# Paired box protein Pax-8 = Paired box protein Pax-8 (Homo sapiens, UniProt Q06710); assay: inhibitors of PAX8-driven TPO luciferase reporter, dose response, RMG-I cells, cherry-pick (AID 687027); assay type: functional, cell-based;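 also: luciferase reporter driven by Pax8 target thyroperoxidase promoter measured by SteadyGlo luminescence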
# [20] = cytotoxicity in OVCAR8 ovarian cancer cells, dose response, PAX8 project, cell-based, plate reader, dry powder samples (AID 743197); assay type: functional; conditions: OVCAR-8
# [21] = T. cruzi growth inhibition in host cells, dose response, cell-based, plate reader, dry powder, set 2 (AID 652275); assay type: functional
# [22] = NIH/3T3 fibroblast cytotoxicity, dose response, cytotoxicity control, cell-based, plate reader, dry powder, set 2 (AID 652280); assay type: functional; conditions: NIH3T3
# Vasopressin V1b receptor = Vasopressin V1b receptor (Homo sapiens, UniProt P47901); assay: Late-stage results from the probe development effort to identify antagonists of arginine vasopressin receptor 1a (AVPR1a): fluorescence-based cell-based dose response AVPR1b inhibition counterscreen assay.; assay type: functional
# [23] = Late-stage results from the probe development effort to identify antagonists of arginine vasopressin receptor 1a (AVPR1a): fluorescence-based cell-based dose response OXTR inhibition counterscreen assay.; assay type: functional
# [24] = Late-stage results from the probe development effort to identify antagonists of arginine vasopressin receptor 1a (AVPR1a): fluorescence-based cell-based dose response AVPR1a inhibition assay.; assay type: functional
# Vasopressin V2 receptor = Vasopressin V2 receptor (Homo sapiens, UniProt P30518); assay: Late-stage results from the probe development effort to identify antagonists of arginine vasopressin receptor 1a (AVPR1a): fluorescence-based cell-based dose response AVPR2 inhibition counterscreen assay.; assay type: functional
# Chain of Vasopressin V2 receptor (P30518 whole entry): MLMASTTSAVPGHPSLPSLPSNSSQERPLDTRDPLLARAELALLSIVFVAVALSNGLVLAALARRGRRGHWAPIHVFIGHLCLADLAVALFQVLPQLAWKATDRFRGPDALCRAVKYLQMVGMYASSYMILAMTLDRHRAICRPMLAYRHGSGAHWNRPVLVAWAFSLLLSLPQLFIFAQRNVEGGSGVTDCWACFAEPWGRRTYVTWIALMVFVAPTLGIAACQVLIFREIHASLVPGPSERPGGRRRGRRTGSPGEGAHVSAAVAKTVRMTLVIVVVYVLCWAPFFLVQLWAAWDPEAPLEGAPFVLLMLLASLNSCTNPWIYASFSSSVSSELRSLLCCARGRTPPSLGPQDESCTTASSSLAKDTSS
# Chain of Tumor necrosis factor (P01375 whole entry, the tested form may be a part): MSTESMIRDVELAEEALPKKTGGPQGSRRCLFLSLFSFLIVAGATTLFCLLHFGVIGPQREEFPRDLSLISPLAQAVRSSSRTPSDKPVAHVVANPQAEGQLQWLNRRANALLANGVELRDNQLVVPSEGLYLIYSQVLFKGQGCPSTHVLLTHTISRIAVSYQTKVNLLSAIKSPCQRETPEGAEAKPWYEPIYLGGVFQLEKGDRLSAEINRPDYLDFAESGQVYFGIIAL
# Chain of Paired box protein Pax-8 (Q06710 whole entry): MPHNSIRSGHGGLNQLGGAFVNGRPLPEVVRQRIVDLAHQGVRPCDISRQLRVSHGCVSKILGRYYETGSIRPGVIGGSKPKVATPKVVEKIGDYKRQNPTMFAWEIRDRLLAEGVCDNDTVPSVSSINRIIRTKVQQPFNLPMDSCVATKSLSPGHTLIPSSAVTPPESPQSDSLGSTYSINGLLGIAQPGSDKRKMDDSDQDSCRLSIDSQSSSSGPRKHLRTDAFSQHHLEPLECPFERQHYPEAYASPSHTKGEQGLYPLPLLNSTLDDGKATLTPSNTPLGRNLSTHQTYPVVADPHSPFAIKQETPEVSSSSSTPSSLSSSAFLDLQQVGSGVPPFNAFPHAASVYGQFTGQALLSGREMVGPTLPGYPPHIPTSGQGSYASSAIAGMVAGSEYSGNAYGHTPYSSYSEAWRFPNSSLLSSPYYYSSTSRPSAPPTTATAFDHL
# Chain of Kallikrein-7 (P49862 whole entry, the tested form may be a part): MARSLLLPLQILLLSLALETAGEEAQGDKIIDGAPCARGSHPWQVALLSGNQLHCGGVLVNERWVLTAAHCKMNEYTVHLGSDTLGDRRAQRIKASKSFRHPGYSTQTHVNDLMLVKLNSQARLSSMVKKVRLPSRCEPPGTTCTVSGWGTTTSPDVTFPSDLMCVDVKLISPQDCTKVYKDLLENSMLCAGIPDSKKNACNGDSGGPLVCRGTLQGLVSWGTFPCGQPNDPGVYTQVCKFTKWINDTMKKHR
# Chain of Vasopressin V1b receptor (P47901 whole entry): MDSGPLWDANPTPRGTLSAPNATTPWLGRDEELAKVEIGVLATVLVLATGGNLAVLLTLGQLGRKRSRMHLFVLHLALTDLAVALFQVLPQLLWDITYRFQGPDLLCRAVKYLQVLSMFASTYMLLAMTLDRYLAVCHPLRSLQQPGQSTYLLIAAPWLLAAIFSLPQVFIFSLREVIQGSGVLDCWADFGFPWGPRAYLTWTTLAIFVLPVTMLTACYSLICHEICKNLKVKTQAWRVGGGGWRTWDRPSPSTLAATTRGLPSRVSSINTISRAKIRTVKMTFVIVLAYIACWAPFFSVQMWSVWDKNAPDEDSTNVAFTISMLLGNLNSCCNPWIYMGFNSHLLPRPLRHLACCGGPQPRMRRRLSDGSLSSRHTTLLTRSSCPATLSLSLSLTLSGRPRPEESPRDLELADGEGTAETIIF
# Chain of Disintegrin and metalloproteinase domain-containing protein 17 (P78536 whole entry, the tested form may be a part): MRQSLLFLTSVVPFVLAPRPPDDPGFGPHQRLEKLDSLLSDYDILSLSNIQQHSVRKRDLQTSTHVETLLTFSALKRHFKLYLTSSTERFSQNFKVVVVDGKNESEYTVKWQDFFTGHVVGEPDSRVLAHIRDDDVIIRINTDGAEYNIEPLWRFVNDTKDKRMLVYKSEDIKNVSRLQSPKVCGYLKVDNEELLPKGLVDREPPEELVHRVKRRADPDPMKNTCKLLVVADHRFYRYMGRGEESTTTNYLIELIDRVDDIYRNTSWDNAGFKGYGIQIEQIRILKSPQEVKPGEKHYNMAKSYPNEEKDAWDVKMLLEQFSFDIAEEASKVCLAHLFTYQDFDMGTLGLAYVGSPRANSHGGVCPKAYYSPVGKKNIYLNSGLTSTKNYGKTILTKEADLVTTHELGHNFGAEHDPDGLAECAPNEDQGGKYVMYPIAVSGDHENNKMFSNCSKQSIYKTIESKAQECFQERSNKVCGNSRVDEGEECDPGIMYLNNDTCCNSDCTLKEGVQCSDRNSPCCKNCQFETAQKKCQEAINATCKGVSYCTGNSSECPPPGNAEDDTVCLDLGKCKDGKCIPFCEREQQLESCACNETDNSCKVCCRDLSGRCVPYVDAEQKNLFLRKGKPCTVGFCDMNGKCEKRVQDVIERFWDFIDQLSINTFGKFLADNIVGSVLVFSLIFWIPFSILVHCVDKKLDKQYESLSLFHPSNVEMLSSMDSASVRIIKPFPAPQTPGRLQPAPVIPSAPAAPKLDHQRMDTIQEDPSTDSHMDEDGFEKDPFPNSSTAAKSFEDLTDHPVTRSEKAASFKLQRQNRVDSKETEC
smiles,measurement,setting,value
FC(F)(F)c1cnc(N2CCCN(C(S)=Nc3ccccc3)CC2)c(Cl)c1,AC50,[1],3.78 µM (active)
same,AC50,[2],26.9 µM (active)
same,EC50,[3],0.421 µM (active)
O=C(Nc1ccc(NC(=O)c2cccs2)cc1)c1cccs1,EC50,Kallikrein-7,> 69.5 µM (inactive)
Cc1ccc(O)c(-c2cc(-c3ccc(F)cc3)no2)c1,EC50,[4],> 67.5 µM (inactive)
same,IC50,HEK293 [5],> 67.5 µM (inactive)
same,EC50,cells,> 67.5 µM (inactive)
same,IC50,[6],> 67.5 µM (inactive)
CCOc1ccc(NC(=O)c2ccc(CN3CCc4ccccc4C3)cc2)cc1,IC50,HEK293 [7],> 20 µM (inactive)
same,IC50,[8],> 69.5 µM (inactive)
same,IC50,[9],1.79 µM (active) and 1.13 µM (active)
same,IC50,HEK293 [10],3.96 µM (active)
same,EC50,HEK293 [11],0.79 µM (active)
same,IC50,Tumor necrosis factor,6.05 µM (active) and 2.05 µM (active)
same,IC50,[12],> 69.5 µM (inactive)
same,IC50,HEK293 [13],> 20 µM (inactive)
same,IC50,HEK293 [14],> 20 µM (inactive)
COc1ccccc1N(C)S(=O)(=O)c1ccc(C(=O)Nc2ccc(C(N)=O)cc2)cc1,EC50,Kallikrein-7,15.8 µM (inactive)
CC1(Cc2cccc(C#N)c2)C(=O)Nc2ccc(-c3cccc(C(F)(F)F)c3)cc21 (stereo unspecified),EC50,HEK293 [15],> 59.7 µM (inactive)
same,IC50,[8],8.9 µM (active)
same,EC50,HEK293 [16],> 59.7 µM (inactive)
same,IC50,[12],> 69.5 µM (inactive)
Cc1ccccc1-c1ccc2c(c1)O[C@H](CN(C)C(=O)Nc1ccc(C(F)(F)F)cc1)[C@H](C)CN([C@@H](C)CO)S2(=O)=O,AC50,[17],42.5 µM (active)
same,AC50,[18],< 0.26 µM (active)
same,AC50,[19],44.3 µM (active)
same,AC50,Paired box protein Pax-8,9.3 µM (active)
C[C@H](CO)N1C[C@H](C)[C@H](CN(C)S(=O)(=O)c2ccccc2)OCCCC[C@H](C)Oc2ccc(NS(=O)(=O)c3ccc(Cl)cc3)cc2C1=O,AC50,[20],3.41 µM (active)
same,AC50,[18],6.87 µM (active)
same,AC50,Paired box protein Pax-8,10.1 µM (active)
CC(C)N1CC[C@@H](CN(C)Cc2ccc(Oc3ccccc3)cc2)Oc2c(NC(=O)c3ccncc3)cccc2C1=O,AC50,[21],0.0195 µM (active)
same,AC50,[22],23.4 µM (active)
CC(C)N1C[C@@H](CN(C)Cc2ccc(Oc3ccccc3)cc2)Oc2c(NC(=O)c3ccncc3)cccc2C1=O,AC50,[21],0.00223 µM (active)
same,AC50,[22],2.36 µM (active)
O=C(C1CCN(c2ccc(F)cn2)CC1)N(CC1CC1)c1ccc(Cl)cc1,IC50,Vasopressin V1b receptor,20.5 µM (inactive)
same,IC50,[23],9 µM (active)
same,IC50,[24],0.0241 µM (active)
same,IC50,Vasopressin V2 receptor,24.3 µM (inactive)
COCCN(C(=O)N1CCN(c2ccccc2C)CC1)c1ccc(OC)cc1,IC50,Vasopressin V1b receptor,29.3 µM (inactive)
same,IC50,[23],1 µM (active)
same,IC50,[24],0.1 µM (active)
same,IC50,Vasopressin V2 receptor,19.6 µM (inactive)
